The numbers were not newly measured in patent publication US20250261646A1, “SOLID COMPOSITION AS A SOLUBLE PRECURSOR OF AN ECO-FRIENDLY AND EFFECTIVE METAL-BASED BIOCIDE, PROCESS AND USE THEREOF” (BIOREM ENGINEERING SA, priority 2022, published 2025), which cites them from elsewhere.

For orientation: solubility means how much of the substance goes into solution per volume.

The structures appear in SMILES notation.

For this data set the following is noted: for comparison.

In the case of `[O]=[Zn]` [ZnO, zinc(II) oxide], the solubility is 4 µg/mL.
